{
  "source": "ChEMBL document CHEMBL3600325",
  "about": "“Inhibitory effect of pironetin analogue/colchicine hybrids on the expression of the VEGF, hTERT and c-Myc genes” (2015)",
  "assay_type_in_all_cases": "functional",
  "parameters_in_all_cases": "scale not given: the % may be the effect or the level left",
  "key": {"HT-29 [1]": {"test_system": "HT-29", "assay": "Inhibition of hTERT mRNA expression in human HT-29 cells assessed as hTERT mRNA level at 5 ug/ml incubated for 48 hrs by RT-PCR method relative to control"}, "HT-29 [2]": {"test_system": "HT-29", "assay": "Inhibition of Myc mRNA expression in human HT-29 cells assessed as Myc mRNA level at 5 ug/ml incubated for 48 hrs by RT-PCR method relative to control"}, "HT-29 [3]": {"test_system": "HT-29", "assay": "Inhibition of VEGF mRNA expression in human HT-29 cells assessed as VEGF mRNA level at 5 ug/ml incubated for 48 hrs by RT-PCR method relative to control"}, "HT-29 [4]": {"test_system": "HT-29", "assay": "Inhibition of VEGF production in human HT-29 cells assessed as VEGF level at 5 ug/ml incubated for 72 hrs by ELISA method relative to control"}, "HT-29 [5]": {"test_system": "HT-29", "assay": "Inhibition of Myc mRNA expression in human HT-29 cells assessed as Myc mRNA level at 10 uM incubated for 48 hrs by RT-PCR method relative to control"}, "HT-29 [6]": {"test_system": "HT-29", "assay": "Inhibition of Myc mRNA expression in human HT-29 cells assessed as Myc mRNA level at 50 nM incubated for 48 hrs by RT-PCR method relative to control"}, "HT-29 [7]": {"test_system": "HT-29", "assay": "Inhibition of hTERT mRNA expression in human HT-29 cells assessed as hTERT mRNA level at 10 uM incubated for 48 hrs by RT-PCR method relative to control"}, "HT-29 [8]": {"test_system": "HT-29", "assay": "Inhibition of VEGF mRNA expression in human HT-29 cells assessed as VEGF mRNA level at 10 uM incubated for 48 hrs by RT-PCR method relative to control"}, "HT-29 [9]": {"test_system": "HT-29", "assay": "Inhibition of VEGF mRNA expression in human HT-29 cells assessed as VEGF mRNA level at 50 nM incubated for 48 hrs by RT-PCR method relative to control"}, "HT-29 [10]": {"test_system": "HT-29", "assay": "Inhibition of hTERT mRNA expression in human HT-29 cells assessed as hTERT mRNA level at 50 nM incubated for 48 hrs by RT-PCR method relative to control"}},
  "data": [
    {"compound": "COc1cc2c(c(OC)c1OC)-c1ccc(OC)c(=O)cc1[C@@H](NC(=O)CCCC(=O)OCCCCC[C@@H]1CC=CC(=O)O1)CC2", "values": [
      {"measurement": "Activity", "setting": "HT-29 [1]", "result": 67, "unit": "%"},
      {"measurement": "Activity", "setting": "HT-29 [2]", "result": 16, "unit": "%"},
      {"measurement": "Activity", "setting": "HT-29 [3]", "result": 6, "unit": "%"},
      {"measurement": "Activity", "setting": "HT-29 [4]", "result": 45, "unit": "%"}
    ]},
    {"compound": "COc1cc2c(c(OC)c1OC)-c1ccc(OC)c(=O)cc1[C@@H](NC(=O)CCCCCCCCCCC(=O)OCCCCC[C@@H]1CC=CC(=O)O1)CC2", "values": [
      {"measurement": "Activity", "setting": "HT-29 [1]", "result": 19, "unit": "%"},
      {"measurement": "Activity", "setting": "HT-29 [2]", "result": 5, "unit": "%"},
      {"measurement": "Activity", "setting": "HT-29 [5]", "result": 13, "unit": "%"},
      {"measurement": "Activity", "setting": "HT-29 [6]", "result": 60, "unit": "%"},
      {"measurement": "Activity", "setting": "HT-29 [3]", "result": 3, "unit": "%"},
      {"measurement": "Activity", "setting": "HT-29 [7]", "result": 27, "unit": "%"},
      {"measurement": "Activity", "setting": "HT-29 [8]", "result": 8, "unit": "%"},
      {"measurement": "Activity", "setting": "HT-29 [9]", "result": 36, "unit": "%"},
      {"measurement": "Activity", "setting": "HT-29 [10]", "result": 75, "unit": "%"},
      {"measurement": "Activity", "setting": "HT-29 [4]", "result": 64, "unit": "%"}
    ]},
    {"compound": "COc1cc2c(c(OC)c1OC)-c1ccc(OC)c(=O)cc1[C@@H](NC(=O)CCCC(=O)OCC[C@H](C[C@H](C)C[C@@H]1CC=CC(=O)O1)OC)CC2", "values": [
      {"measurement": "Activity", "setting": "HT-29 [1]", "result": 125, "unit": "%"},
      {"measurement": "Activity", "setting": "HT-29 [2]", "result": 97, "unit": "%"},
      {"measurement": "Activity", "setting": "HT-29 [3]", "result": 70, "unit": "%"},
      {"measurement": "Activity", "setting": "HT-29 [4]", "result": 44, "unit": "%"}
    ]},
    {"compound": "COc1cc2c(c(OC)c1OC)-c1ccc(OC)c(=O)cc1[C@@H](NC(=O)CCCCCCCCCCC(=O)OCC[C@H](C[C@H](O)C[C@@H]1CC=CC(=O)O1)OC)CC2", "values": [
      {"measurement": "Activity", "setting": "HT-29 [1]", "result": 42, "unit": "%"},
      {"measurement": "Activity", "setting": "HT-29 [2]", "result": 15, "unit": "%"},
      {"measurement": "Activity", "setting": "HT-29 [5]", "result": 32, "unit": "%"},
      {"measurement": "Activity", "setting": "HT-29 [6]", "result": 94, "unit": "%"},
      {"measurement": "Activity", "setting": "HT-29 [3]", "result": 7, "unit": "%"},
      {"measurement": "Activity", "setting": "HT-29 [7]", "result": 55, "unit": "%"},
      {"measurement": "Activity", "setting": "HT-29 [8]", "result": 9, "unit": "%"},
      {"measurement": "Activity", "setting": "HT-29 [9]", "result": 51, "unit": "%"},
      {"measurement": "Activity", "setting": "HT-29 [10]", "result": 81, "unit": "%"},
      {"measurement": "Activity", "setting": "HT-29 [4]", "result": 44, "unit": "%"}
    ]},
    {"compound": "CO[C@H](CCO)C[C@H](O)C[C@@H]1CC=CC(=O)O1", "values": [
      {"measurement": "Activity", "setting": "HT-29 [1]", "result": 125, "unit": "%"},
      {"measurement": "Activity", "setting": "HT-29 [2]", "result": 111, "unit": "%"},
      {"measurement": "Activity", "setting": "HT-29 [5]", "result": 66, "unit": "%"},
      {"measurement": "Activity", "setting": "HT-29 [6]", "result": ">100", "unit": "%"},
      {"measurement": "Activity", "setting": "HT-29 [3]", "result": 44, "unit": "%"},
      {"measurement": "Activity", "setting": "HT-29 [7]", "result": ">100", "unit": "%"},
      {"measurement": "Activity", "setting": "HT-29 [8]", "result": 40, "unit": "%"},
      {"measurement": "Activity", "setting": "HT-29 [9]", "result": 90, "unit": "%"},
      {"measurement": "Activity", "setting": "HT-29 [10]", "result": ">100", "unit": "%"},
      {"measurement": "Activity", "setting": "HT-29 [4]", "result": 93, "unit": "%"}
    ]},
    {"compound": "COc1cc2c(c(OC)c1OC)-c1ccc(OC)c(=O)cc1[C@@H](NC(C)=O)CC2", "note": "[COLCHICINE]", "values": [
      {"measurement": "Activity", "setting": "HT-29 [1]", "result": 20, "unit": "%"},
      {"measurement": "Activity", "setting": "HT-29 [2]", "result": 6, "unit": "%"},
      {"measurement": "Activity", "setting": "HT-29 [5]", "result": 6, "unit": "%"},
      {"measurement": "Activity", "setting": "HT-29 [6]", "result": 19, "unit": "%"},
      {"measurement": "Activity", "setting": "HT-29 [3]", "result": 4, "unit": "%"},
      {"measurement": "Activity", "setting": "HT-29 [7]", "result": 30, "unit": "%"},
      {"measurement": "Activity", "setting": "HT-29 [8]", "result": 5, "unit": "%"},
      {"measurement": "Activity", "setting": "HT-29 [9]", "result": 48, "unit": "%"},
      {"measurement": "Activity", "setting": "HT-29 [10]", "result": 43, "unit": "%"},
      {"measurement": "Activity", "setting": "HT-29 [4]", "result": 40, "unit": "%"}
    ]},
    {"compound": "C/C=C/C[C@H](C)[C@@H](OC)[C@@H](C)[C@H](O)C[C@H]1OC(=O)C=C[C@H]1CC", "note": "[PIRONETIN]", "values": [
      {"measurement": "Activity", "setting": "HT-29 [1]", "result": 119, "unit": "%"},
      {"measurement": "Activity", "setting": "HT-29 [2]", "result": 118, "unit": "%"},
      {"measurement": "Activity", "setting": "HT-29 [3]", "result": 48, "unit": "%"},
      {"measurement": "Activity", "setting": "HT-29 [4]", "result": 50, "unit": "%"}
    ]}
  ]
}
